“And” between values parts separate entries of the source, which are not always exact repeats. Identical values can stand only once. The source made the active and inactive calls.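 Rule for the calls: active = compounds giving half or more protection of infected cells from virus-caused growth loss, again on retest; inactive = the rest.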
Tested on: CEM cells HIV-1 protection, formazan growth assay
Test: NCI AIDS Antiviral Assay
Settings: for IC50: measured here: growth of uninfected CEM cells
Summary of the method: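 Protection of CEM cells against HIV-1 was scored from cell growth (soluble formazan) across five concentrations, with parallel uninfected cells. Lack of protection may reflect toxicity.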

Structure (SMILES) | EC50 | IC50 | outcome
N#Cc1nc(CCc2nc(C#N)c(N)o2)oc1N | > 200 µM | > 200 µM | 
O=c1oc2ccccc2c(O)c1C(c1ccco1)c1c(O)c2ccccc2oc1=O | > 200 µM | 33.9 µM | 
N#Cc1c2n(c(=S)n(-c3ccccc3)c1=O)CCCCCCC2 | > 200 µM | 162 µM | 
Cc1nc(-c2cccnc2)sc1C(=O)/C=C/c1ccc(Cl)cc1Cl | > 19.1 µM | > 19.1 µM | 
O=C(c1ccc([N+](=O)[O-])cc1)c1no[n+]([O-])c1C(=O)c1ccc([N+](=O)[O-])cc1 |  |  | inactive
CN(Cc1ccccc1)C(=NC#N)N(Cc1ccccc1)Cc1ccccc1 | > 19.5 µM | > 19.5 µM | 
O=C(c1ccccc1SSc1ccccc1C(=O)N1CSC[C@@H]1CO)N1CSC[C@H]1CO | > 200 µM | 107 µM | 
N#Cc1c(-c2ccco2)c2c(n(C3OC(CO)C(O)C(O)C3O)c1=S)CCCC2 (stereo not drawn) | > 200 µM | 110 µM | 
Cc1ccc(NC(=O)C(=O)C(C(=O)c2ccc3ccccc3c2)C2OC(=O)c3ccccc32)cc1C (stereo not drawn) | > 53.7 µM | 25.7 µM | 
COC(=O)/C(C#N)=C1\NC(=O)c2ccccc21 | > 83.2 µM | > 83.2 µM | 
COc1ccc(-c2cc(=O)c3cc(Cl)cc(Cl)c3o2)cc1OC | > 100 µM | > 100 µM | 
O=C1N=NC(Cl)c2ccccc21 (stereo not drawn) | > 28.8 µM | > 28.8 µM | 
CN(C)CCNC(=O)c1nn(-c2ccccc2)c2c1CSc1ccccc1-2 | > 200 µM | 110 µM | 
C[C@H]1c2c([nH]c(=O)[nH]c2=O)O[C@@H]1c1ccccc1 | > 200 µM | > 200 µM | 
CCN(CC)CCC12CC(C)OC1=Nc1ccccc1NC2=O (stereo not drawn) | > 200 µM | > 200 µM | 
CCCCCCCNC1=C(O)c2ccccc2C(=O)C1=O | > 200 µM | 55 µM | 
O=C1CC23CC(=O)CC2(C1)c1ccccc1C3=O (stereo not drawn) | > 389 µM | > 389 µM | 
COc1ccc(CCNC(=S)/N=C/C2=C(O)CC(C)(C)CC2=O)cc1OC | > 200 µM | > 200 µM | 
COc1ccc(OC)c(/C=N/N=C(\N)NO)c1 | > 603 µM | 115 µM | 
CCOC(=O)[C]1([Bi]([CH3])[CH3])N=NC(C(=O)OC)=C1C(=O)OC (stereo not drawn) | 17.4 µM | 26.3 µM | 
O=C(/C=C/c1ccc2c(c1)OCO2)NCc1ccco1 | > 200 µM | 117 µM | 
Cc1cc(=O)[nH]c2c3c(ccc12)OC(C)(C)C=C3 | > 200 µM | 3.72 µM | 

Structure (SMILES) | EC50 | IC50 | outcome
COc1ccc2cc3[nH]c(=O)cc(O)c3cc2c1OC |  |  | inactive
NC(=O)c1nnc2cc(F)c(F)cc2c1N | > 200 µM | > 200 µM | 
Cc1cc(S(=O)(=O)O)c(NC(=O)c2oc3cc(O)ccc3c(=O)c2C)cc1Cl | > 589 µM | > 589 µM | 
CC(=O)OCC1Cn2c(c(-c3ccccc3)c(=O)[nH]c2=S)O1 (stereo not drawn) | > 603 µM | > 603 µM | 
CC(=O)OC1C[C@H]2C(OC(=O)c3ccccc3)C3C4(OC(C)=O)COC4C[C@H](OC(C)=O)[C@@]3(C)C(OC(C)=O)[C@H](OC(C)=O)C(=C1C)C2(C)C (stereo partly drawn) | > 35.5 µM | > 35.5 µM | 
O/N=C(\CSSC/C(=N/O)c1ccc(Cl)cc1)c1ccc(Cl)cc1 | > 200 µM | 10.7 µM | 
CC(=O)Nc1ccc2oc3ccc(Cl)cc3c(=O)c2c1 | > 174 µM | 77.6 µM | 
COc1c2c(c(OC)c3c(=O)cc(C/C(=N/NC(=O)C[n+]4ccccc4)C(=O)Nc4cc(C)ccc4C)oc13)OCO2 | > 30.9 µM | > 30.9 µM | 
Cn1cnc([N+](=O)[O-])c1Sc1nnc(-c2ccc(Cl)cc2)n1C | > 372 µM | 3.02 µM | 
CN(C)Cc1cc(C(=O)/C=C/c2c(Cl)cccc2Cl)cc(CN(C)C)c1O | > 200 µM | 2.69 µM | 
CCC12C=CCN3CCC4(C(=C(C(=O)OC)[C@@H]1O)Nc1ccccc14)C32 (stereo partly drawn) | > 141 µM | 2.34 µM | 
COC(=O)C1=C(CS(=O)c2ccccc2[N+](=O)[O-])ON(C)C1c1ccccc1 (stereo not drawn) |  |  | inactive
CC1=C2C(=O)[C@H]3[C@@H](CC=C4C[C@@H](O)CC[C@@]43C)[C@@H]2CC[C@]12O[C@@H]1C[C@H](C)CN[C@H]1[C@H]2C | > 200 µM | > 2.45 µM and 102 µM | 
C=C(Br)CC12CC3(CCC1c1ccc(OC)cc1C2=O)OCCO3 (stereo not drawn) | > 110 µM | > 110 µM | 
COc1ccc(/C=C/C(=O)c2cc(CN(C)C)c(O)c(CN(C)C)c2)cc1 | > 200 µM | 40.7 µM | 
C[N+](C)(CCCn1ccnc1[N+](=O)[O-])CCCn1ccnc1[N+](=O)[O-] | > 200 µM | > 200 µM | 
CC12CCC(O1)C1C(=O)OC(=O)C12 (stereo not drawn) | > 490 µM | 437 µM | 
COc1cc(C2c3cc4c(cc3C(O)C3CCC(=O)N23)OCO4)cc(OC)c1OC (stereo not drawn) | > 200 µM | 18.6 µM | 
CSC(=O)c1sc(SC)[n+](-c2ccccc2)c1O | > 200 µM | 10.2 µM | 
O=C1C=C(N2CCCCC2)c2cc(N3CCCCC3)ncc2C1=O |  |  | inactive
[N-]=[N+]=NC1=C(C(=O)c2ccccc2)C(=O)c2cccc3cccc1c23 | > 100 µM | 49 µM | 
O=C(O)C1CCN1Cc1ccc2ccccc2c1O (stereo not drawn) | > 200 µM | 195 µM | 

Structure (SMILES) | EC50 | IC50 | outcome
C(=NCCN=Cc1cccc2ccccc12)c1cccc2ccccc12 |  |  | inactive
Clc1ccc(OCc2nnc(CCCCCCCCc3nnc(COc4ccc(Cl)cc4Cl)n3Nc3ccccc3)n2Nc2ccccc2)c(Cl)c1 | > 0.501 µM | > 0.501 µM | 
CC(C)OP(=O)(OC(C)C)C([CH2][Sn]([CH3])([CH3])[Cl])P(=O)(c1ccccc1)c1ccccc1 (stereo not drawn) | > 200 µM | 2.88 µM | 
COc1ccc2c3c1C(=O)CCCC3CO2 (stereo not drawn) |  |  | inactive
N/N=C1\CC(c2ccccc2)Oc2ccccc21 (stereo not drawn) | > 200 µM | 182 µM | 
O=C(O)CCCCCCCCCc1ccccc1 | > 200 µM | 107 µM | 
O=C(NC1CCCCC1NC(c1ccccc1)(c1ccccc1)c1ccccc1)C(=O)NC1CCCCC1NC(c1ccccc1)(c1ccccc1)c1ccccc1 (stereo not drawn) | > 100 µM | > 100 µM | 
CC1=CC(C)(C)NC(=S)N1c1ccc(N(C)C)cc1 |  |  | inactive
CCOC(=O)C(NC(C)=O)[CH](c1ccccc1)[Sn]([Cl])([c]1ccccc1)[c]1ccccc1 (stereo not drawn) | > 200 µM | 91.2 µM | 
C[n+]1c(-c2ccc(/C=N/NC(=O)c3ccc(C(=O)N/N=C/c4ccc(-c5cn6ccccc6[n+]5C)cc4)cc3)cc2)cn2ccccc21 | > 3.89 µM | 0.0224 µM | 
Cc1ccc(S(=O)(=O)c2c(N)n(CCN(C)C)c3nc4ccccc4nc23)cc1 | > 200 µM | > 200 µM | 
CSc1nc(NC2OC(COC(C)=O)C(OC(C)=O)C(OC(C)=O)C2OC(C)=O)c2c(n1)OCC2=O (stereo not drawn) | > 67.6 µM | > 67.6 µM | 
O=C(O)CSC(NC(=O)C(C(F)(F)F)C(F)(F)F)(C(F)(F)F)C(F)(F)F | > 200 µM | > 200 µM | 
Cc1ccc(OP2(=O)Nc3ccccc3S2)cc1 (stereo not drawn) | > 468 µM | 25.7 µM | 
COC(=O)c1c2c(cc3c1CC1(Cc4cc5c(cc4C1)CCC5)C3)CCC2 | > 200 µM | > 200 µM | 
NNC1=N/C(=C\c2ccccc2O)C(=O)N1 | > 200 µM | 35.5 µM | 
BrN1C2c3ccccc3C1c1ccccc12 |  |  | inactive
Cc1cc(=O)[nH]c(NN2C(Cl)C(=O)C2c2c(O)ccc3ccccc23)n1 (stereo not drawn) | > 182 µM | 24 µM | 
Cc1[nH]c(=O)[nH]c(=O)c1Cc1ccc(Cl)cc1 | > 200 µM | > 200 µM | 
Nc1nc2cc([N+](=O)[O-])cnc2s1 | > 479 µM | 437 µM | 
Cc1ccc(S(=O)(=O)NC(=O)n2ccnc2C)cc1 | > 891 µM |  | 
C=C1CCC([N+](=O)[O-])[C@](C)(N=O)CC[C@@H]2C1CC2(C)C (stereo partly drawn) | > 200 µM | 17 µM | 

Structure (SMILES) | EC50 | IC50 | outcome
NCCCC(N)(C(=O)O)C(F)F (stereo not drawn) | > 200 µM | 129 µM | 
O=C(NCCCC1C2CCC(C2)C1CNC(=O)Nc1cccc(Cl)c1)Nc1cccc(Cl)c1 (stereo not drawn) | > 200 µM | 3.63 µM | 
CCOC(=O)c1cn(Cc2ccccc2)c(=O)n1Cc1ccccc1 | > 107 µM | 60.3 µM | 
Cc1cn(C(Cc2ccccc2)OCCN2C(=O)c3ccccc3C2=O)c(=O)[nH]c1=O (stereo not drawn) | > 200 µM | > 200 µM | 
Cc1ccc(N2CN(c3ccc(C)cc3)CC(C)(N)C2)cc1 | > 200 µM | 24 µM | 
CCCCCCCCCCCCCCCCN1CCC2SC3CN(CCCCCCCCCCCCCCCC)CCC3SC2C1 (stereo not drawn) | > 100 µM | > 100 µM | 
O=Nc1c(O)[nH]c(=O)[nH]c1=O | > 200 µM | > 200 µM | 
O=C1c2ccccc2S(=O)(=O)N1Sc1ccccc1[N+](=O)[O-] | > 200 µM | 17 µM | 
O=C1N=C(C=c2ccc(=Cc3[nH]c(=O)n(CN4CCCCC4)c3O)cc2)C(=O)N1CN1CCCCC1 | > 100 µM | 22.4 µM | 
CC1OC(c2ccc3c(OCc4ccccc4)cccc3c2O)CC(OCc2ccccc2)[C@H]1OCc1ccccc1 (stereo partly drawn) | > 200 µM | > 200 µM | 
CC(C)(C)c1ccc(-c2nc3ccc([N+](=O)[O-])cc3c(=O)o2)cc1 | > 200 µM | 8.91 µM | 
CN(C)c1ccc(/C=C/C(=O)c2ccccc2)cc1 | > 39.8 µM | 14.8 µM | 
CCCC[Si](CCCC)(CCCC)O[C@@H](/C=C/C(=O)OCC)[C@H](Cc1ccccc1)O[Si](CCCC)(CCCC)CCCC | > 200 µM | > 200 µM | 
CCN(CC)C1Oc2cc3c(cc2C(c2ccc(OC)cc2)C1C)OCO3 (stereo not drawn) | > 200 µM | 24 µM | 
Cc1cc2nc3n(c2cc1C)C(c1c(F)cccc1F)SC3 (stereo not drawn) | > 44.7 µM | 20.9 µM | 
Cc1ccc(NC(=O)CC(=O)n2nc(-c3ccccc3)c(N=Nc3ccccc3Cl)c2-c2ccccc2)cc1 | > 9.77 µM | > 9.77 µM | 
O=C1c2ccccc2C(=O)c2c1nc1sccn21 | > 200 µM | 32.4 µM | 
CC(O)CCC(=O)c1ccoc1 (stereo not drawn) | > 1480 µM | > 1480 µM | 
CC(C)(C)C1CCC2c3c([nH]c4ccccc34)C3C(=O)N(c4ccc5c(c4)C(=O)c4ccccc4C5=O)C(=O)C3C2C1 (stereo not drawn) | > 200 µM | > 200 µM | 
Sc1ccccc1C1N(Cc2ccc(Cl)cc2)CCCN1Cc1ccc(Cl)cc1 | > 100 µM | 5.75 µM | 

Source: PubChem BioAssay AID179 (DTP/NCI, 2004)
